Experimental data reported in PMC6452685, “Lysyl-tRNA synthetase as a drug target in malaria and cryptosporidiosis” (Proceedings of the National Academy of Sciences of the …, 2019).

Tests used:
[1] = Intrinsic clearance in human liver microsomes; assay type: in vitro ADME
[2] = system: P. falciparum stage V gametocytes; experiment: P. falciparum stage V gametocytes; assay type: cell-based; details: Plasmodium falciparum
Protocol: Thi s is a modification of the previously reported method (13). Asexual P. falciparum paras i t es (NF54) from a cl one G 3 w ere g row n at 5% hemat ocri t i n O+ human ery t hrocy t es i n s erum-contai ni ng compl ete medi a (RPMI 1640, g entami ci n 0. 05 mg /ml , hy pox anthi ne 0. 05 mg/ml, HEPES 38.4 mM , sodium bicarbonate 0.2% [w/v], D-glucose 0.2% [w/v], sodium hydroxide 3.4 mM, 11.9% [w/v] heat-inactivated human serum [O+] and at 37 °C un de r l ow-ox y g en con di t i ons (3% O2, 5% C O2, and 92% N2) and a paras i temi a between 0. 5% and 3%. Ri ng-stage parasites were synchronized at 3%
paras i t aemi a (d-6) w i t h 5% (w /v ) D-Sorbi tol . On day −4, 45ml of compl ete medi a was added to the
cul ture fl as k to s tres s vi a hematocri t drop now at 2. 5%. The o n d-3 an d d-2 onl y 45 ml o f the medi a
was substituted for fres h medi a.

[3] = system: P. falciparum male/female gamete formation; experiment: P. falciparum male/female gamete formation; assay type: cell-based; details: Plasmodium falciparum
Protocol: Thi s i s bas ed on methods previ ousl y reported (14). Mature P. falciparum stage V gametocytes (NF54)
were incubated with test compound for 24 h at 3 7°C i n 384-well plates containing complete culture
medi um (RPMI 1640, 25 mM HEPES, 2 g/l D-glucose, 2 g/l sodium bicarbonate, 50 mg/l
Gametogenesis was triggered by dis pens i ng 10 µl ookinete medium (RPMI 1640, 25 mM HEPES, 2 g/l
D-glucose, 2 g/l sodium bicarbonate, 50 mg/l hy pox ant hi ne, 100 µM xanthurenic acid) also
contai ni ng 2. 7 µg/ml anti-Pfs25-Cy3 into each well and cooling the plate on a metal block at 4 °C fo r
4 mi n. Fi fteen s l ater male gametogenesis was recorded by b ri ghtfi el d i magi ng usi ng ti m e s 6 object i v e
and then the pl ate stored at 2 6 °C for a fu rther 24 h to allow female gametes to develop. Female
gamete formation was assessed by fluorescence m icroscopy using x6 objective to identify anti-Pfs25-
gentian violet negative and positive controls.
3.1 3 Act iv it y a gains t Cry pt os pori diu m h omi nis (CALIBR)
Thi s i s bas ed on methods previ ousl y reported (10).

[4] = Hepatocyte stability, human; assay type: in vitro ADME
Protocol: SUPPLEMENTARY INFORMATION where V (ml/mg protein) is the incubation volume/mg protein added (0.5) and microsomal protein yield is taken as being 52.5 mg protein per g liver. Verapami l (0. 5 µ M ) w as us ed as a pos i t i v e cont rol to confirm ac ceptable assay performance. Ex peri ments were performed us i ng a s i ngl e ti me-cours e […]
4.5 He pat ocy t e s t abilit y
Cryopreserved hepatocytes were used to take non-CYP mediated Phase I and Phase II enzymes into […]
than those determined using li v e r mi crosomes or other subcellular liver fractions and could be mo re predi ct i v e of a met abol i c rat e det ermi ned in vivo.
Cryopreserved mouse (batch MC539) and huma n (batch HU E50H) hepatocytes were supplied by ThermoFi sher Sci enti fi c, Pai sl ey, UK and Xenotech, LLC, respectively. Cryopreserved hepatocytes were rapidly thawed in a pre-heat ed w at er bat h at 37 °C before ad di ng to 50 ml of pre-warmed CHRM medi a (ThermoFi sher Sci enti fi c, Paisley, UK) and mi xed gentl y. […] […] 5 mi l li on v i abl e cel l s /ml i n s uppl emented W ME. Onl y s us pens i ons whi ch ac hi ev ed >80% pos t-thaw viability were us ed i n ex peri ment s . […]
DMSO and 0.25 million cells/ml. […]

[5] = Toxicity in mice at higher doses; assay type: in vivo; details: higher doses (50 mg/kg orally)
Plasmodium falciparum = experiment: In vitro parasite reduction ratio (PRR) assay; assay type: cell-based; details: 10 x EC50, 120 h
Protocol: 3.5 In vitro parasite reduction ratio (PRR) assay with Pl as modi um fal c i p aru m (G S K) The in vitro Parasite Rate Reduction assay (PRR) was conducted as previously described (8). […] Drug was renewed daily over the entire treatment period. Samples of paras i t es w ere t ak en from t he t reat ed cul t ure at i nt erv al s (24, 48, 72, 96 and 120 h t i me poi nt s ), drug was washed out and drug-free paras i t es w ere cul tured i n 96-well plates by adding fre s h e ry t hrocy t e s
and new cul ture medi a. T he n umber of vi abl e parasi tes was determi ned by the seri al di l uti on technique. Four indepe ndent serial dilutions were done with each sample to correct for experimental

PfKRS1 = PfKRS1 (Plasmodium falciparum, UniProt Q8IDJ8); experiment: PfKRS1 hit discovery high-throughput screen (Kinase-Glo); assay type: biochemical; set-up: recombinant PfKRS1 (77–583 and 80–583); 6xHis (N); made in house; host or cells: E. coli Rosetta BL21(DE3), vector pAVA0421; details: single point 7.5 µM
Sequence of PfKRS1 (Q8IDJ8 77-583): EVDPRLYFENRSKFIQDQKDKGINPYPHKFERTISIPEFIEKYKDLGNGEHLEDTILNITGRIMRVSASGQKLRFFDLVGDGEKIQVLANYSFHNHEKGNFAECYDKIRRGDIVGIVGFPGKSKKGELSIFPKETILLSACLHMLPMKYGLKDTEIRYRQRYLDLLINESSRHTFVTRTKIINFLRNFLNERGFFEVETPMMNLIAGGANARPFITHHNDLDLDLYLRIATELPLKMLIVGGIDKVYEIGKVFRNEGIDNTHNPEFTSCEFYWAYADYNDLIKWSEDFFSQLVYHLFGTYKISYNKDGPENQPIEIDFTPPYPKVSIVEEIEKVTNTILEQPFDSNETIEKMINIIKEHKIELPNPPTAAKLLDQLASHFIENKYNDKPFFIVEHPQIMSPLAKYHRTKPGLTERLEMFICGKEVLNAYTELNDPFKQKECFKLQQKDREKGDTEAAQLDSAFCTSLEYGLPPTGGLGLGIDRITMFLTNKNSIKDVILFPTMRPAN
Protocol: By using the luciferase ATP consumption (Kinase-Glo) assay platform with sub-Km substrate concentrations (thus biasing the assay toward identifying ATP-competitive inhibitors), the GlaxoSmithKline malaria actives set of ∼13,000 compounds (the Tres Cantos Antimalarial Set) ([19]) was screened against recombinant PfKRS1, leading to the discovery of a PfKRS1 inhibitor, compound 2 (Fig. 1). […] Compound 2 suffered from high metabolic instability (CLi > 50 mL⋅min^−1⋅g^−1 in mouse liver microsomes); however, in contrast to cladosporin 1, it was chemically tractable. […]
Assays were performed in 384-well format i n buffer (as des cri bed i n Tabl e S3), 60 µM lysine, and 75 nM PfKRS1. Compounds were initially screened at single point concentrations of 7.5 µM and hits were re peated three times. Plates were incubated for 180 mi ns at 37°C after a ddition of compounds. Reactions were terminated by the addi ti on of Ki nase-Glo® reagent and read on an E nVi si on pl ate reader (Perki nEl mer, W al tham, MA). […]
Us i ng the EnzChek as s ay pl atform the I C50 value for compound 5 was determined at saturating concentrati ons of both s ubs trates , 0. […] Assay ready plates containing different concent rations of compound 5 were prepa red usi ng an Ec ho® 5 50 acousti c di spenser (Labcyte Inc.). […]

| SMILES | Microsomal stability CLint [1] [mL⋅min^−1⋅g^−1] | EC50 [2] [µM] | EC50 [3] [µM] | Hepatocyte stability CLint [4] | toxicity in mice [5] | rate of killing (PRR assay) (Plasmodium falciparum) | inhibition of PfKRS1 in high-throughput screen (PfKRS1) |
| --- | --- | --- | --- | --- | --- | --- | --- |
| O=C(NCC1(O)CCC(F)(F)CC1)c1cc(=O)c2cc(F)ccc2o1 [Compound 5] | < 0.5 | 9.9 | > 1 | 0.5 (mouse), <0.5 (human) mL⋅min^−1⋅g^−1 | showed toxicity | slow rate of killing |  |
| O=C(NCC1CCCCC1)c1cc(=O)c2ccccc2o1 [Compound 2] |  |  |  |  |  |  | 71-91% |
